Reference: US9062124B2, “GIP-based mixed agonists for treatment of metabolic disorders and obesity” (priority 2008, dated 2015)
“Also recorded” adds a separate entry of the source. Where a SMILES comes first, the peptide text is derived from it. [ ]: non-standard residue; d: D form. Aib = CC(C)(N)C(=O)O

Key:
Assay type in all cases: cell-based
[1] = tested on: glucagon receptor, GLP-1 receptor or GIP receptor; assay: Agonist profile across receptors assigned from the cAMP reporter assay data; conditions: assigned from the in vitro EC50 data of Tables 1-4
[2] = target: T1, GIP receptor (Homo sapiens, UniProt P48546); assay: cAMP synthesis functional assay (firefly luciferase reporter in HEK293 cells), GIP receptor
T1 construct: expressed in transfected cells; host or cells: HEK293
T1 sequence (P48546 22-466): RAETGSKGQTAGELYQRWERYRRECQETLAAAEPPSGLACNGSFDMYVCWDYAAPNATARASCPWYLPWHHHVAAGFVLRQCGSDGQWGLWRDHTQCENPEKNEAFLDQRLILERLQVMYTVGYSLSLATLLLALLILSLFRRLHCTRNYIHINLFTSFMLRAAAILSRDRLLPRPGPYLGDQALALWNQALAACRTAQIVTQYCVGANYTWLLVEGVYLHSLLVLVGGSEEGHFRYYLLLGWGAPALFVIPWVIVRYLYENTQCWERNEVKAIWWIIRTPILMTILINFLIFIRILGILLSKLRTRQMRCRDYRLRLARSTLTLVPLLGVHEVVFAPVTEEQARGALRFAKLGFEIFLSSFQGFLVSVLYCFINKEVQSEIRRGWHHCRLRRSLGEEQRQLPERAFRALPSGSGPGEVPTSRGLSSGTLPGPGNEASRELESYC

[3] = target: T2, glucagon receptor (Homo sapiens, UniProt P47871); assay: cAMP synthesis functional assay (firefly luciferase reporter in HEK293 cells), glucagon receptor; conditions: for EC50: Glucagon Receptor EC50, nM, linear peptides with AIB at position 16 and/or 20
T2 construct: expressed in transfected cells; host or cells: HEK293
T2 sequence (P47871 26-477): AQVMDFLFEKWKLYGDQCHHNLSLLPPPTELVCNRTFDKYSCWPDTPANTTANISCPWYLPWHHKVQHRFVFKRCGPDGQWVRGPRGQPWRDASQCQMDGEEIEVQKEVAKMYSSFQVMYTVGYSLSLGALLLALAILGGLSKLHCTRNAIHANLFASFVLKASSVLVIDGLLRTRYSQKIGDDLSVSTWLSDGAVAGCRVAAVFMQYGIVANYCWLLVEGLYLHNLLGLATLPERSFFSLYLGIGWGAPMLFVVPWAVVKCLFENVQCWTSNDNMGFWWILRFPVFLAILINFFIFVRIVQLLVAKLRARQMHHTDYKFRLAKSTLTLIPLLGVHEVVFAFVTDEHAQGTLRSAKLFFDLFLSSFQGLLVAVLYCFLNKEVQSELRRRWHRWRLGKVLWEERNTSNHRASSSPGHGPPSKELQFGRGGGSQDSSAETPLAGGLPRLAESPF

[4] = target: T3, GLP-1 receptor (Homo sapiens, UniProt P43220); assay: cAMP synthesis functional assay (firefly luciferase reporter in HEK293 cells), GLP-1 receptor
T3 construct: expressed in transfected cells; host or cells: HEK293
T3 sequence (P43220 24-463, species assumed): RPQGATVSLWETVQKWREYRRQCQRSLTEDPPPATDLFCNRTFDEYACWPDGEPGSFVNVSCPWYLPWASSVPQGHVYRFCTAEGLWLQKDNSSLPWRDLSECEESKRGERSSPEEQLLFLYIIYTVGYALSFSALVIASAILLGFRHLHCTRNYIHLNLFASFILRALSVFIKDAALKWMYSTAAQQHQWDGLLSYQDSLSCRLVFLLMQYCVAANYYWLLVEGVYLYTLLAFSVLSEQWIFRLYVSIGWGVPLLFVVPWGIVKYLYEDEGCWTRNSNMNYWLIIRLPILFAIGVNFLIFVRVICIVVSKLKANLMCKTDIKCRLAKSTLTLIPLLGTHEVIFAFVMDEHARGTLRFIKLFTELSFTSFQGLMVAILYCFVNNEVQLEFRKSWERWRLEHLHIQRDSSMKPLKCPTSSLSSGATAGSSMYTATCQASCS

[5] = GLP-1 Receptor EC50, nM, Table 2
[6] = relative to the standard (Std.) EC50 of the same run

EC50 ([2]; GIP Receptor EC50, cAMP luciferase reporter assay as in Example 16) | EC50 ([4]; GLP-1 Receptor EC50, cAMP luciferase reporter assay as in Example 16) | Compound | receptor activity profile (glucagon / GLP-1 / GIP agonism) [1] | EC50 ([2]; GIP Receptor EC50, nM, Table 2) | GIP Receptor relative activity ([2]; Table 2) | EC50 ([3]; Table 2) | Glucagon Receptor relative activity ([3]; Table 2) | EC50 [4, 5] | GLP-1 Receptor relative activity ([4]; Table 2) | GIP Receptor relative activity [2, 6] | Glucagon Receptor relative activity [3, 6] | GLP-1 Receptor relative activity [4, 6]
 |  | CC[C@H](C)[C@H](NC(=O)[C@H](CO)NC(=O)[C@H](Cc1ccc(O)cc1)NC(=O)[C@H](CC(=O)O)NC(=O)[C@H](CO)NC(=O)[C@@H](NC(=O)[C@H](Cc1ccccc1)NC(=O)[C@@H](NC(=O)CNC(=O)[C@H](CCC(N)=O)NC(=O)C(C)(C)NC(=O)[C@@H](N)Cc1ccc(O)cc1)[C@@H](C)O)[C@@H](C)O)C(=O)N[C@@H](Cc1ccc(O)cc1)C(=O)N[C@@H](CC(C)C)C(=O)N[C@@H](CC(=O)O)C(=O)NC(C)(C)C(=O)N[C@@H](CCC(N)=O)C(=O)N[C@@H](C)C(=O)N[C@@H](C)C(=O)N[C@@H](CCC(N)=O)C(=O)N[C@@H](CCC(=O)O)C(=O)N[C@@H](Cc1ccccc1)C(=O)N[C@H](C(=O)N[C@@H](CC(N)=O)C(=O)N[C@@H](Cc1c[nH]c2ccccc12)C(=O)N[C@@H](CC(C)C)C(=O)N[C@@H](CC(C)C)C(=O)N[C@@H](C)C(=O)NCC(=O)NCC(=O)N1CCC[C@H]1C(=O)N[C@@H](CO)C(=O)N[C@@H](CO)C(=O)NCC(=O)N[C@@H](C)C(=O)N1CCC[C@H]1C(=O)N1CCC[C@H]1C(=O)N1CCC[C@H]1C(=O)N[C@@H](CO)C(=O)N[C@@H](CS)C(N)=O)C(C)C [mt-242] (H-Y[Aib]QGTFTSDYSIYLD[Aib]QAAQEFVNWLLAGGPSSGAPPPSC-NH2; N-terminus assumed) | exhibited activities of glucagon/GLP-1/GIP triagonists | 0.078 nM | 14.10% | 1.11 nM | 9.58% | 0.102 nM | 29.41% |  |  | 
 |  | CC[C@H](C)[C@H](NC(=O)[C@H](CO)NC(=O)[C@H](Cc1ccc(O)cc1)NC(=O)[C@H](CC(=O)O)NC(=O)[C@H](CO)NC(=O)[C@@H](NC(=O)[C@H](Cc1ccccc1)NC(=O)[C@@H](NC(=O)CNC(=O)[C@H](CCC(N)=O)NC(=O)C(C)(C)NC(=O)[C@@H](N)Cc1ccc(O)cc1)[C@@H](C)O)[C@@H](C)O)C(=O)N[C@@H](Cc1ccc(O)cc1)C(=O)N[C@@H](CC(C)C)C(=O)N[C@@H](CC(=O)O)C(=O)NC(C)(C)C(=O)N[C@@H](CCC(N)=O)C(=O)N[C@@H](C)C(=O)N[C@@H](C)C(=O)NC(C)(C)C(=O)N[C@@H](CCC(=O)O)C(=O)N[C@@H](Cc1ccccc1)C(=O)N[C@H](C(=O)N[C@@H](CC(N)=O)C(=O)N[C@@H](Cc1c[nH]c2ccccc12)C(=O)N[C@@H](CC(C)C)C(=O)N[C@@H](CC(C)C)C(=O)N[C@@H](C)C(=O)NCC(=O)NCC(=O)N1CCC[C@H]1C(=O)N[C@@H](CO)C(=O)N[C@@H](CO)C(=O)NCC(=O)N[C@@H](C)C(=O)N1CCC[C@H]1C(=O)N1CCC[C@H]1C(=O)N1CCC[C@H]1C(=O)N[C@@H](CO)C(=O)N[C@@H](CS)C(N)=O)C(C)C [mt-250] (H-Y[Aib]QGTFTSDYSIYLD[Aib]QAA[Aib]EFVNWLLAGGPSSGAPPPSC-NH2; N-terminus assumed) | exhibited activities of glucagon/GLP-1/GIP triagonists |  | 30.65% |  | 6.30% |  | 63.64% |  |  | 
 |  | CC[C@H](C)[C@H](NC(=O)[C@H](CO)NC(=O)[C@H](Cc1ccc(O)cc1)NC(=O)[C@H](CC(=O)O)NC(=O)[C@H](CO)NC(=O)[C@@H](NC(=O)[C@H](Cc1ccccc1)NC(=O)[C@@H](NC(=O)CNC(=O)[C@H](CCC(N)=O)NC(=O)C(C)(C)NC(=O)[C@@H](N)Cc1ccc(O)cc1)[C@@H](C)O)[C@@H](C)O)C(=O)N[C@@H](Cc1ccc(O)cc1)C(=O)N[C@@H](CC(C)C)C(=O)N[C@@H](CC(=O)O)C(=O)N[C@@H](CCC(=O)O)C(=O)N[C@@H](CCC(N)=O)C(=O)N[C@@H](C)C(=O)N[C@@H](C)C(=O)NC(C)(C)C(=O)N[C@@H](CCC(=O)O)C(=O)N[C@@H](Cc1ccccc1)C(=O)N[C@H](C(=O)N[C@@H](CC(N)=O)C(=O)N[C@@H](Cc1c[nH]c2ccccc12)C(=O)N[C@@H](CC(C)C)C(=O)N[C@@H](CC(C)C)C(=O)N[C@@H](C)C(=O)NCC(=O)NCC(=O)N1CCC[C@H]1C(=O)N[C@@H](CO)C(=O)N[C@@H](CO)C(=O)NCC(=O)N[C@@H](C)C(=O)N1CCC[C@H]1C(=O)N1CCC[C@H]1C(=O)N1CCC[C@H]1C(=O)N[C@@H](CO)C(=O)N[C@@H](CS)C(N)=O)C(C)C [mt-251] (H-Y[Aib]QGTFTSDYSIYLDEQAA[Aib]EFVNWLLAGGPSSGAPPPSC-NH2; N-terminus assumed) | exhibited activity of a GLP-1/GIP co-agonist |  | 57.58% |  | 1.52% |  | 140.00% |  |  | 
 |  | CC[C@H](C)[C@H](NC(=O)[C@H](CO)NC(=O)[C@H](Cc1ccc(O)cc1)NC(=O)[C@H](CC(=O)O)NC(=O)[C@H](CO)NC(=O)[C@@H](NC(=O)[C@H](Cc1ccccc1)NC(=O)[C@@H](NC(=O)CNC(=O)[C@H](CCC(N)=O)NC(=O)C(C)(C)NC(=O)[C@@H](N)Cc1ccc(O)cc1)[C@@H](C)O)[C@@H](C)O)C(=O)N[C@@H](Cc1ccc(O)cc1)C(=O)N[C@@H](CC(C)C)C(=O)N[C@@H](CC(=O)O)C(=O)N[C@@H](CCCCN)C(=O)N[C@@H](CCC(N)=O)C(=O)N[C@@H](C)C(=O)N[C@@H](C)C(=O)NC(C)(C)C(=O)N[C@@H](CCC(=O)O)C(=O)N[C@@H](Cc1ccccc1)C(=O)N[C@H](C(=O)N[C@@H](CC(N)=O)C(=O)N[C@@H](Cc1c[nH]c2ccccc12)C(=O)N[C@@H](CC(C)C)C(=O)N[C@@H](CC(C)C)C(=O)N[C@@H](C)C(=O)NCC(=O)NCC(=O)N1CCC[C@H]1C(=O)N[C@@H](CO)C(=O)N[C@@H](CO)C(=O)NCC(=O)N[C@@H](C)C(=O)N1CCC[C@H]1C(=O)N1CCC[C@H]1C(=O)N1CCC[C@H]1C(=O)N[C@@H](CO)C(=O)N[C@@H](CS)C(N)=O)C(C)C [mt-252] | exhibited activities of glucagon/GLP-1/GIP triagonists; also recorded: exhibited activity at the GIP, GLP-1, and glucagon receptors | 0.013 nM | 146.15% | 0.319 nM | 13.17% | 0.018 nM | 116.67% | 146.15% | 13.17% | 116.67%
0.0232 nM | 0.0303 nM | CC[C@H](C)[C@H](NC(=O)[C@H](CO)NC(=O)[C@H](Cc1ccc(O)cc1)NC(=O)[C@H](CC(=O)O)NC(=O)[C@H](CO)NC(=O)[C@@H](NC(=O)[C@H](Cc1ccccc1)NC(=O)[C@@H](NC(=O)CNC(=O)[C@H](CCC(N)=O)NC(=O)C(C)(C)NC(=O)[C@@H](N)Cc1ccc(O)cc1)[C@@H](C)O)[C@@H](C)O)C(=O)N[C@@H](Cc1ccc(O)cc1)C(=O)N[C@@H](CC(C)C)C(=O)N[C@@H](CC(=O)O)C(=O)N[C@@H](CCCCN)C(=O)N[C@@H](CCC(N)=O)C(=O)N[C@@H](C)C(=O)N[C@@H](C)C(=O)NC(C)(C)C(=O)N[C@@H](CCC(=O)O)C(=O)N[C@@H](Cc1ccccc1)C(=O)N[C@H](C(=O)N[C@@H](CS)C(=O)N[C@@H](Cc1c[nH]c2ccccc12)C(=O)N[C@@H](CC(C)C)C(=O)N[C@@H](CC(C)C)C(=O)N[C@@H](C)C(=O)NCC(N)=O)C(C)C [mt-257] (H-Y[Aib]QGTFTSDYSIYLDKQAA[Aib]EFVCWLLAG-NH2; N-terminus assumed) | exhibited activity at the GIP, GLP-1, and glucagon receptors |  |  |  |  |  |  | 41.38% | 32.53% | 39.27%
 |  | CC[C@H](C)[C@H](NC(=O)[C@H](CO)NC(=O)[C@H](Cc1ccc(O)cc1)NC(=O)[C@H](CC(=O)O)NC(=O)[C@H](CO)NC(=O)[C@@H](NC(=O)[C@H](Cc1ccccc1)NC(=O)[C@@H](NC(=O)CNC(=O)[C@H](CCC(N)=O)NC(=O)C(C)(C)NC(=O)[C@@H](N)Cc1ccc(O)cc1)[C@@H](C)O)[C@@H](C)O)C(=O)N[C@@H](Cc1ccc(O)cc1)C(=O)N[C@@H](CC(C)C)C(=O)N[C@@H](CC(=O)O)C(=O)N[C@@H](CCC(=O)O)C(=O)N[C@@H](CCC(N)=O)C(=O)N[C@@H](C)C(=O)N[C@@H](C)C(=O)NC(C)(C)C(=O)N[C@@H](CCC(=O)O)C(=O)N[C@@H](Cc1ccccc1)C(=O)N[C@H](C(=O)N[C@@H](CS)C(=O)N[C@@H](Cc1c[nH]c2ccccc12)C(=O)N[C@@H](CC(C)C)C(=O)N[C@@H](CC(C)C)C(=O)N[C@@H](C)C(=O)NCC(N)=O)C(C)C [mt-258] (H-Y[Aib]QGTFTSDYSIYLDEQAA[Aib]EFVCWLLAG-NH2; N-terminus assumed) | exhibited activities of glucagon/GLP-1/GIP triagonists |  | 16.84% |  | 14.08% |  | 58.91% |  |  | 
